Test results from PubChem BioAssay AID2060893 (Molecular Pharmacology Branch, DTP, NCI, 2025).

Tested on: K86415-001-R-J1-PDC complex spheroids, viability
Test: Anticancer human tumor K86415-001-R-J1-PDC patient-derived lung adenocarcinoma cell line growth inhibition [RAS]
Details: for IC50: curve of first compound; for viability, T/C: stronger effect = lower value; active means viability on the fitted dose curve at most 10% of control; inactive means the rest
How it was run: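 Agents were tested in combination matrices in half-log decrements from a top concentration at or near clinical Cmax (10 microM if undetermined). Targets were multi-cell spheroids of tumour lines plus HUVEC and MSC stromal cells.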

[1] = second compound 0.000949 µM, first compound 0.0316 µM
[2] = second compound 0.000949 µM, first compound 0.1 µM
[3] = second compound 0.000949 µM, first compound 0.316 µM
[4] = second compound 0.000949 µM, first compound 1 µM
[5] = second compound 0.000949 µM, first compound 3.16 µM
[6] = second compound 0.000949 µM, first compound 10 µM
[7] = second compound 0.003 µM, first compound 0.0316 µM
[8] = second compound 0.003 µM, first compound 0.1 µM
[9] = second compound 0.003 µM, first compound 0.316 µM
[10] = second compound 0.003 µM, first compound 1 µM
[11] = second compound 0.003 µM, first compound 3.16 µM
[12] = second compound 0.003 µM, first compound 10 µM
[13] = second compound 0.00949 µM, first compound 0.0316 µM
[14] = second compound 0.00949 µM, first compound 0.1 µM
[15] = second compound 0.00949 µM, first compound 0.316 µM
[16] = second compound 0.00949 µM, first compound 1 µM
[17] = second compound 0.00949 µM, first compound 3.16 µM
[18] = second compound 0.00949 µM, first compound 10 µM
[19] = second compound 0.03 µM, first compound 0.0316 µM
[20] = second compound 0.03 µM, first compound 0.1 µM
[21] = second compound 0.03 µM, first compound 0.316 µM
[22] = second compound 0.03 µM, first compound 1 µM
[23] = second compound 0.03 µM, first compound 3.16 µM
[24] = second compound 0.03 µM, first compound 10 µM
[25] = second compound 0.0949 µM, first compound 0.0316 µM
[26] = second compound 0.0949 µM, first compound 0.1 µM
[27] = second compound 0.0949 µM, first compound 0.316 µM
[28] = second compound 0.0949 µM, first compound 1 µM
[29] = second compound 0.0949 µM, first compound 3.16 µM
[30] = second compound 0.0949 µM, first compound 10 µM
[31] = second compound 0.3 µM, first compound 0.0316 µM
[32] = second compound 0.3 µM, first compound 0.1 µM
[33] = second compound 0.3 µM, first compound 0.316 µM
[34] = second compound 0.3 µM, first compound 1 µM
[35] = second compound 0.3 µM, first compound 3.16 µM
[36] = second compound 0.3 µM, first compound 10 µM
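Further: spheroids exposed to agents for seven days before readout.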

NC1c2ccccc2OC12CCN(c1cnc3c(N4CCCc5ncccc54)n[nH]c3n1)CC2 (stereo unspecified) + C=CC(=O)N1CCN(c2nc(OCC3CCCN3C)nc3c(F)c(-c4nc(N)cc(C)c4C(F)(F)F)c(Cl)cc23)C(C)C1
< 31.6 nM: IC50 (second compound 0.00316 µM) | IC50 (second compound 0.01 µM) | IC50 (second compound 0.0316 µM) | IC50 (second compound 0.1 µM) | IC50 (second compound 0.316 µM) | IC50 (second compound 1 µM)
active: viability, T/C (second compound 0.00316 µM, first compound 0.0316 µM) 7.58% | viability, T/C (second compound 0.00316 µM, first compound 0.1 µM) 6.46% | viability, T/C (second compound 0.00316 µM, first compound 0.316 µM) 4.66% | viability, T/C (second compound 0.00316 µM, first compound 1 µM) 5.77% | viability, T/C (second compound 0.00316 µM, first compound 3.16 µM) 4.88% | viability, T/C (second compound 0.00316 µM, first compound 10 µM) 5.36% | viability, T/C (second compound 0.01 µM, first compound 0.0316 µM) 7.19% | viability, T/C (second compound 0.01 µM, first compound 0.1 µM) 5.33% | viability, T/C (second compound 0.01 µM, first compound 0.316 µM) 4.69% | viability, T/C (second compound 0.01 µM, first compound 1 µM) 4.12% | viability, T/C (second compound 0.01 µM, first compound 3.16 µM) 4.26% | viability, T/C (second compound 0.01 µM, first compound 10 µM) 4.5% | viability, T/C (second compound 0.0316 µM, first compound 0.0316 µM) 6.59% | viability, T/C (second compound 0.0316 µM, first compound 0.1 µM) 6.76% | viability, T/C (second compound 0.0316 µM, first compound 0.316 µM) 4.64% | viability, T/C (second compound 0.0316 µM, first compound 1 µM) 4.27% | viability, T/C (second compound 0.0316 µM, first compound 3.16 µM) 4.76% | viability, T/C (second compound 0.0316 µM, first compound 10 µM) 5.5% | viability, T/C (second compound 0.1 µM, first compound 0.0316 µM) 5.65% | viability, T/C (second compound 0.1 µM, first compound 0.1 µM) 6.03% | viability, T/C (second compound 0.1 µM, first compound 0.316 µM) 4.11% | viability, T/C (second compound 0.1 µM, first compound 1 µM) 3.86% | viability, T/C (second compound 0.1 µM, first compound 3.16 µM) 4.33% | viability, T/C (second compound 0.1 µM, first compound 10 µM) 4.71% | viability, T/C (second compound 0.316 µM, first compound 0.0316 µM) 6.32% | viability, T/C (second compound 0.316 µM, first compound 0.1 µM) 6.11% | viability, T/C (second compound 0.316 µM, first compound 0.316 µM) 4.53% | viability, T/C (second compound 0.316 µM, first compound 1 µM) 4.12% | viability, T/C (second compound 0.316 µM, first compound 3.16 µM) 6.47% | viability, T/C (second compound 0.316 µM, first compound 10 µM) 5.1% | viability, T/C (second compound 1 µM, first compound 0.0316 µM) 5.95% | viability, T/C (second compound 1 µM, first compound 0.1 µM) 6.16% | viability, T/C (second compound 1 µM, first compound 0.316 µM) 5% | viability, T/C (second compound 1 µM, first compound 1 µM) 4.63% | viability, T/C (second compound 1 µM, first compound 3.16 µM) 5.74% | viability, T/C (second compound 1 µM, first compound 10 µM) 5.91%

Cc1nc(N2CCC3(CC2)COC(C)C3N)c(CO)nc1Sc1ccnc(N)c1Cl (stereo unspecified) + CCn1c(-c2cccnc2C(C)OC)c2c3cc(ccc31)N1CCOC(CC(NC(=O)C(C(C)C)N(C)C(=O)C3(F)CCN(C(=O)C#CC(C)(C)N(C)C)CC3)C(=O)N3CCCC(N3)C(=O)OCC(C)(C)C2)C1
active: viability, T/C [3] 7.93% | viability, T/C [4] 9.19% | viability, T/C [5] 6.66% | viability, T/C [6] 4.12% | viability, T/C [7] 8.24% | viability, T/C [8] 6.74% | viability, T/C [9] 5.5% | viability, T/C [10] 7.84% | viability, T/C [11] 3.89% | viability, T/C [12] 3.06% | viability, T/C [13] 7.59% | viability, T/C [14] 5.87% | viability, T/C [15] 5.22% | viability, T/C [16] 4.38% | viability, T/C [17] 3.17% | viability, T/C [18] 3.06% | viability, T/C [20] 6.71% | viability, T/C [21] 5.16% | viability, T/C [22] 4.22% | viability, T/C [23] 3.35% | viability, T/C [24] 3.62% | viability, T/C [25] 9.27% | viability, T/C [26] 6.46% | viability, T/C [27] 4.18% | viability, T/C [28] 4.43% | viability, T/C [29] 3.06% | viability, T/C [30] 2.77% | viability, T/C [31] 8.31% | viability, T/C [32] 6.71% | viability, T/C [33] 5.12% | viability, T/C [34] 4.01% | viability, T/C [35] 3.5% | viability, T/C [36] 2.86%
inactive: viability, T/C [1] 29.3% | viability, T/C [2] 16.5% | viability, T/C [19] 10.5%
< 31.6 nM: IC50 (second compound 0.000949 µM) | IC50 (second compound 0.003 µM) | IC50 (second compound 0.00949 µM) | IC50 (second compound 0.03 µM) | IC50 (second compound 0.0949 µM) | IC50 (second compound 0.3 µM)

CC(C)NCC(C(=O)N1CCN(c2ncnc3c2C(C)CC3O)CC1)c1ccc(Cl)cc1 (stereo unspecified) + CCn1c(-c2cccnc2C(C)OC)c2c3cc(ccc31)N1CCOC(CC(NC(=O)C(C(C)C)N(C)C(=O)C3(F)CCN(C(=O)C#CC(C)(C)N(C)C)CC3)C(=O)N3CCCC(N3)C(=O)OCC(C)(C)C2)C1
< 31.6 nM: IC50 (second compound 0.000949 µM) | IC50 (second compound 0.003 µM) | IC50 (second compound 0.00949 µM) | IC50 (second compound 0.03 µM) | IC50 (second compound 0.0949 µM) | IC50 (second compound 0.3 µM)
active: viability, T/C [6] 2.82% | viability, T/C [9] 8.95% | viability, T/C [10] 8.63% | viability, T/C [11] 7.76% | viability, T/C [12] 2.54% | viability, T/C [15] 9.15% | viability, T/C [16] 9.63% | viability, T/C [17] 4.93% | viability, T/C [18] 3.21% | viability, T/C [21] 10.2% | viability, T/C [22] 8.95% | viability, T/C [23] 4.3% | viability, T/C [24] 3.21% | viability, T/C [26] 9.03% | viability, T/C [27] 9.7% | viability, T/C [28] 10% | viability, T/C [29] 4.97% | viability, T/C [30] 2.94% | viability, T/C [33] 10.3% | viability, T/C [34] 6.44% | viability, T/C [35] 4.71% | viability, T/C [36] 2.26%
inactive: viability, T/C [1] 35.7% | viability, T/C [2] 32.2% | viability, T/C [3] 17.5% | viability, T/C [4] 23.3% | viability, T/C [5] 27.7% | viability, T/C [7] 13.4% | viability, T/C [8] 10.9% | viability, T/C [13] 12.8% | viability, T/C [14] 9.52% | viability, T/C [19] 12.9% | viability, T/C [20] 10.5% | viability, T/C [25] 9.52% | viability, T/C [31] 12.9% | viability, T/C [32] 12%
